“Also recorded” adds a separate entry of the source.
Legend:
[1] = system: membrane chloride conductance (GCl), rat diaphragm; test: Inhibition of membrane chloride conductance; format: cell-based; settings: for Relative potency: potency of 1 for a compound having a Ki of 1 x 10^-2 M; for Reduction of GCl: 10-s M (so in the source)
[2] = system: residual conductance in chloride-free solution (largely attributable to K+), rat diaphragm; test: Residual conductance in chloride-free solution; format: cell-based
[3] = system: red blood cell (RBC) surface charge; test: Electrophoretic mobility of erythrocytes; parameters: species or system human; settings: concentrations 0.1 to 100 times the Ki
[4] = system: membrane anion permeability, rat diaphragm; test: Anion permeability sequence, bi-ionic potential shift measurements; format: cell-based
[5] = system: rat diaphragm fibers; test: Resting membrane potential of diaphragm fibers; format: cell-based; settings: fibers exposed to 2 x 10-s M 9-AC (so in the source); SD
[6] = system: Cl- current, rat diaphragm fibers; test: Current-voltage relationships of diaphragm fibers; format: cell-based; settings: 2 x 10^-5 M 9-AC, 20 ms after onset of hyperpolarizing pulses, all voltage levels
[7] = system: membrane anion conductances (GCl, GBr, GNO3, GI), rat diaphragm; test: Anion conductance sequence in rat diaphragm; format: cell-based
[8] = system: membrane resistance, rat diaphragm; test: Membrane resistance of diaphragm in vitro during perfusion and wash; format: cell-based

| Compound | Relative potency [1] | Effects on residual conductances (GK) [2] | also measured |
| --- | --- | --- | --- |
| Cc1cc(C(=O)O)cc(C)c1[N+](=O)[O-] [3,5-Dimethyl-4-nitro BA] | 3.6 | 0 |  |
| Cc1c(C)c(C(=O)O)c(C)c(C)c1C(=O)O [2,3,5,6-Tetramethyl-4-COOH-BA] | < 0.1 | 0 | Effect on GCl (in words) ([1]; rat diaphragm): without detectable effect on Gel |
| Cc1cc(C)c(C)c(C(=O)O)c1C [2,3,5,6-Tetramethyl BA] | 16.7 | 0 |  |
| Cc1ccc(C(=O)O)c(C)c1 [2,4-Dimethyl BA] | 6.2 | + |  |
| 3,~-Dichloro-2-amino BA | 76 | + |  |
| Cc1cc(C)c(C(=O)O)cc1C [2,4,5-Trimethyl benzoic acid] | 152 | + | Red blood cell (RBC) electrophoretic mobility [3]: No change; Permeability sequence inversion ([4]; increasing analog concentration): same sequence inversions were observed |
| O=C(O)c1c2ccccc2cc2ccccc12 [9-AC, anthracene-9-COOH] | 909 | 0 | Reduction of GCl ([1]; depolarizing pulses): 54%; Reduction of GCl ([1]; hyperpolarizing pulses): 58%; Percent reduction in observed GCl at varied external Ca2+ ([1]; 10^-5 M 9-AC, external [Ca2+] 2 mM, 10 mM and 20 mM): the same; Average resting membrane potential (RMP) [5]: 68.3 ± 3.8 mV; Red blood cell (RBC) electrophoretic mobility [3]: No change; Early I-V relationships relative to control values [6]: about 30 % of control; Anion conductance sequence ([7]; 8 x 10^-6 M 9-AC (table prints 8 x 10-e M)): CI>I>NO3>Br; Change of GI ([7]; 9-AC at 5 x 10^-5 M): appeared increased relative to control values; Reduction of GCl ([7]; 9-AC at 5 x 10^-5 M): > 90%; Change of GBr ([7]; 9-AC at 8 x 10^-6 M): changed little; Change of GI ([7]; 9-AC at 8 x 10^-6 M): appeared to increase; Reduction of GCl ([7]; 9-AC at 8 x 10^-6 M): approximately 50%; Effect on GI at concentrations reducing GCl by >90% ([7]; 9-AC concentrations reducing GCl by more than 90 percent): slight augmentation of G(I); also recorded: slight augmentation of GI; Relative permeability I- vs Cl- ([4]; 5 x 10^-5 M 9-AC, 30 min): more permeable to I- than to el-; Time for increase in membrane resistance to reach new steady value ([8]; 10^-5 M 9-AC in Ringer's): ≤ 10 min; Membrane resistance in chloride-free Ringer's ([8]; methylsulfate-substituted chloride-free Ringer's, same concentration (10^-5 M)): unaffected; Time for membrane resistance to return to near control levels ([8]; reperfusion with normal Ringer's after 10^-5 M 9-AC): 30 to 60 min |
| O=C(O)c1ccccc1 [Benzoic acid (BA), Benzoic acid] |  | 0 |  |
| O=C(O)c1cc(Cl)ccc1Cl [2,5-Dichloro BA] | 33.3 | 0 |  |
| O=C(O)c1c(Cl)cccc1Cl [2,6-Dichloro BA] | 5.0 | 0 |  |
| O=C(O)c1c(Cl)ccc(Cl)c1Cl [2,3,6-Trichloro BA] | 10.5 | 0 |  |
| Cc1ccc(C(=O)O)cc1C [3,4-Dimethyl BA] | 5.0 | 0 |  |
| O=C(O)c1ccc(Cl)c(Cl)c1 [3,4-Dichloro BA] | 38 | 0 |  |
| O=C(O)c1c(Cl)c(Cl)cc(Cl)c1Cl [2,3,5,6-Tetrachloro BA] | 47 | + |  |
| Cc1cc(C)c(C(=O)O)c(C)c1 [2,4,6-Trimethyl BA] | 2.5 | 0 |  |
| Cc1cc(C)cc(C(=O)O)c1 [3,5-Dimethyl BA] | 6.7 | 0 |  |
| O=C(O)c1cc(Cl)cc(Cl)c1 [3,5-Dichloro BA] | 40 | 0 |  |
| Cc1cc(C(=O)O)cc(C)c1O [3,5-Dimethyl-4-hydroxy BA] | < 0.1 | 0 |  |
| Cc1ccc(C)c(C(=O)O)c1 [2,5-Dimethyl BA] | 32 | 0 |  |
| O=C(O)c1cc(Cl)c(Cl)cc1C(=O)O [4,5-Dichioro-2-COOH BA] | 0.63 | 0 |  |
| O=C(O)COc1ccc(Cl)cc1Cl [2,4-Dichloro phenoxyacetic acid] | 5.0 |  |  |
| O=C(O)c1c(Cl)ccc(Cl)c1[N+](=O)[O-] [3,6-Dichloro-2-nitro BA] | 6.0 | 0 |  |
| Cc1cc(C(=O)O)cc(C)c1N [3,5-Dimethyl-4-amino BA] | < 0.3 |  |  |
| Cc1ccc(C)c(S(=O)(=O)O)c1 [2,5-Dimethyl benzene SOsH] | < 0.3 | 0 |  |
| O=C(O)c1c(Cl)c(Cl)c(Cl)c(Cl)c1Cl [Pentachloro BA] | 125 | + |  |

Source: article PMC2215335 (The Journal of General Physiology, 1977)
